Measured values from paper PMC3690454, “14-3-3 Proteins Interact with a Hybrid Prenyl-Phosphorylation Motif to Inhibit G Proteins” (Cell, 2013).
Square brackets hold non-standard residues; d marks the D form. Ends that are not written are not given here. Peptide text beside a SMILES is read from it. * marks the point of attachment. Geranylgeranyl = CC(C)=CCC/C(C)=C/CC/C(C)=C/CC/C(C)=C/C*; Biotin = O=C1N[C@H]2[C@H](CS[C@H]2CCCCC(=O)*)N1; Farnesyl = CC(C)=CCC/C(C)=C/CC/C(C)=C/C*; pT = C[C@@H](OP(=O)(O)O)[C@H](N)C(=O)O; pS = N[C@@H](COP(=O)(O)O)C(=O)O; X1 = CC(C)=CCC/C(C)=C/C*; Ahx = NCCCCCC(=O)O; Prenyl = CC(C)=CC*

Assays:
14-3-3ζ [1] = target: T1, 14-3-3ζ (Homo sapiens, UniProt P63104); test: Isothermal titration calorimetry of Rnd3 C-terminal peptides with 14-3-3ζ; format: binding; conditions: ITC
T1 construct: hexa-His; made in house; host or cells: E. coli BL21(DE3) Star
T1 sequence (P63104 1-245): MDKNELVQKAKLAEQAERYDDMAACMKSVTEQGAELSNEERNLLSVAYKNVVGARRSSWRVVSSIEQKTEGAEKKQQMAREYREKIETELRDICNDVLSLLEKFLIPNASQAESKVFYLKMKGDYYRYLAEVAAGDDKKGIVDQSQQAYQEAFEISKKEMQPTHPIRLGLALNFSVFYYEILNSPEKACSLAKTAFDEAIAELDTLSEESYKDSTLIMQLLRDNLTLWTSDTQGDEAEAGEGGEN
Description: ITC measurements were carried out using a VP-ITC200 instrument (GE Healthcare). The 14-3-3ζ domain (see Extended Experimental Procedures) was used at 50–60 μM in ITC buffer (50 mM Tris [pH 7.5]), 100 mM NaCl, 1 mM TCEP). Rnd3 C-terminal peptides were solubilized in ITC buffer and used at 500–600 μM. Titrations were carried out at 25°C in triplicate. Each titration was fitted to a simple one-site binding model using the Origin software provided with the instrument. Titrations with nonbinding peptides were carried out at 15°C and 25°C.
GST-14-3-3β protein was expressed as previously reported ([Yaffe et al., 1997]). A hexa-His-tagged version of 14-3-3ζ was expressed and purified essentially as previously reported ([Kostelecky et al., 2009]). In brief, the E. coli strain BL21(DE3) Star (Invitrogen) was transformed with the expression plasmid that was maintained by 34 μg/ml chloramphenicol. E. coli cells were grown to OD600nm of 0.7-0.8 in TB medium at 37°C and protein expression induced by 1 mM IPTG for 5 hr at 30°C. Pelleted cells were suspended in buffer A (25 mM Tris [pH 7.5], 100 mM NaCl, 1 mM EDTA, and 1 mM DTT) and disrupted by sonication. Insoluble material was cleared by high-speed centrifugation and the cleared lysate applied to a 5 ml HisTrap column using an AKTA system (GE Healthcare). The 14-3-3ζ protein was eluted with a linear gradient (0–500 mM) of Imidazole in buffer A. Finally, the protein was subjected to size-exclusion chromatography using a High-Load S200 pg column. As previously described, 14-3-3ζ eluted as a dimer with a molecular weight of ∼60 kDa. The final yield of 14-3-3ζ was 30–40 mg per liter of TB medium.

14-3-3ζ [2] = target: T1, 14-3-3ζ; test: Biolayer interferometry (Octet RED96), immobilised biotinylated peptides, 14-3-3ζ in solution; format: binding; conditions: for Kd: kinetic fit, peptide immobilised at 1 μg/ml, 25 mM Tris, 150 mM NaCl, 0.1% Tween-20, association 300 s, dissociation 300 s, NB = no binding; for Kd / koff / kon: typical experiment (n ≥ 3)
Description: (§1) Biolayer interferometry was carried out using an Octet RED96 instrument (ForteBio). Biotinylated peptides were immobilized on streptavadin-coated biosensors (ForteBio) at a concentration of 1 μg/ml in BI buffer (25 mM Tris, 150 mM NaCl, 0.1% Tween-20), for 300 s. The immobilization typically reached a response level of 2 nm. Association and dissociation curves were obtained through addition of a dilution series of 14-3-3ζ ([…]) for 300 s followed by dissociation in BI buffer for 300 s using the Octet acquisition software. The binding data were fitted using the Octet analysis software.

hexa-His-tagged 14-3-3ζ [3] = target: hexa-His-tagged 14-3-3ζ (UniProt P63104); test: ITC; VP-ITC200; 14-3-3ζ at 50–60 μM, Rnd3 peptides at 500–600 μM; 50 mM Tris pH 7.5, 100 mM NaCl, 1 mM TCEP; 25°C, one-site model; non-binding peptides at 15°C and 25°C
14-3-3δ = target: T2, 14-3-3δ (Homo sapiens, UniProt P63104); test: Biolayer interferometry (Octet Red96) of candidate protein C-terminal peptides, Table S5; format: binding; conditions: for affinity for 14-3-3 (in words): compared with farnesylated or geranylgeranylated Rnd3 peptides; for koff: typical experiment (n ≥ 3)
T2 construct: hexa-His; made in house; host or cells: E. coli BL21(DE3) Star
T2 sequence (P63104 1-245): T1 sequence (P63104 1-245)
Description: as §1
Table S5. Interactions of C-Terminal Peptides from Candidate Proteins with 14-3-3, […]
The affinities of the indicated phosphorylated and geranylgeranylated peptides for 14-3-3δ were determined by biolayer interferometry using an Octet Red96 instrument. Data of a typical experiment (n ≥ 3) along with statistics of the fit (χ2, R2) are shown. Peptide sequences from the C-terminus of the indicated proteins (last 10 amino acids of the mature protein sequence, terminating with Cys of CAAX box) are shown in single letter amino acid code, with pS/pT denoting phosphorylated serine/threonine. The modifications added to the C-terminal Cys are indicated. GG, geranylgeranylated; KD, dissociation constant; kon, association rate constant; koff, dissocation rate constant.

hexa-His-tagged 14-3-3ζ [4] = target: T3, hexa-His-tagged 14-3-3ζ (UniProt P63104 1-245); test: BLI; Octet RED96; biotinylated peptides immobilised on streptavidin-coated biosensors (1 μg/ml, 300 s); dilution series of 14-3-3ζ for 300 s, dissociation 300 s; BI buffer 25 mM Tris, 150 mM NaCl, 0.1% Tween-20; data of a typical experiment (n ≥ 3); conditions: both partners purified
T3 construct: 14-3-3 protein zeta; expressed and purified essentially as in Kostelecky et al., 2009; eluted as a dimer of ~60 kDa; the ITC methods call it 'the 14-3-3ζ domain'; source: E. coli BL21(DE3) Star, purified (HisTrap, size-exclusion chromatography)
T3 sequence: T1 sequence (P63104 1-245)

## CC(C)=CCC/C(C)=C/CC/C(C)=C/CSC[C@H](NC(=O)[C@H](COP(=O)(O)O)NC(=O)[C@H](CCCCN)NC(=O)[C@H](C)NC(=O)[C@H](CCCCN)NC(=O)[C@H](CC(=O)O)NC(=O)[C@H](CCCCN)NC(=O)[C@H](CCCNC(=N)N)NC(=O)[C@H](CC(C)C)NC(=O)[C@@H](N)CC(=O)O)C(=O)O [+P+F] (H-DLRKDKAK[pS]C(Farnesyl)-OH)
14-3-3ζ [1]; 25°C, 50 mM Tris pH 7.5, 100 mM NaCl, 1 mM TCEP, one-site model, mean ± SD, n = 3
  Kd: 69 ± 25 nM
14-3-3ζ [2]
  Kd: 32.4 nM
  koff: 0.028 s⁻¹
  kon: 860000 M⁻¹ s⁻¹

## biotinylated Rnd3 C-terminal peptide, phosphorylated on S240 (+P−F)
hexa-His-tagged 14-3-3ζ [3]
  dH: -5.68 kcal/mol
  stoichiometry N: 0.89

## Rap1A+P-GG: phosphorylated Rap1A peptide without the geranylgeranyl modification (EKKKPKKK[pS]C; not fully specified (N-terminus); also: biotinylated)
14-3-3ζ [2]; Figure 7C
  affinity for 14-3-3ζ (in words): micromolar affinity

## CC(C)=CCC/C(C)=C/CC/C(C)=C/CC/C(C)=C/CSC[C@H](NC(=O)[C@H](COP(=O)(O)O)NC(=O)[C@H](CCCCN)NC(=O)[C@H](C)NC(=O)[C@H](CCCCN)NC(=O)[C@H](CC(=O)O)NC(=O)[C@H](CCCCN)NC(=O)[C@H](CCCNC(=N)N)NC(=O)[C@H](CC(C)C)NC(=O)[C@H](CC(=O)O)NC(=O)CCCCCNC(=O)CCCC[C@@H]1SC[C@@H]2NC(=O)N[C@@H]21)C(=O)O [+P+GG] ({Biotin-Ahx}-DLRKDKAK[pS]C(Geranylgeranyl)-OH)
14-3-3ζ [2]
  Kd: 23.2 nM
  koff: 0.021 s⁻¹
  kon: 890000 M⁻¹ s⁻¹

## CC(C)=CCC/C(C)=C/CC/C(C)=C/CC/C(C)=C/CSC[C@H](NC(=O)[C@H](COP(=O)(O)O)NC(=O)[C@H](CCCCN)NC(=O)[C@H](CO)NC(=O)[C@H](CCCNC(=N)N)NC(=O)[C@H](CCCNC(=N)N)NC(=O)[C@H](CCC(=O)O)NC(=O)[C@@H](NC(=O)[C@H](CC(N)=O)NC(=O)[C@@H](NC(=O)CCCCCNC(=O)CCCC[C@@H]1SC[C@@H]2NC(=O)N[C@@H]21)[C@@H](C)O)[C@@H](C)O)C(=O)O [RPRG] ({Biotin-Ahx}-TNTERRSK[pS]C(Geranylgeranyl)-OH)
14-3-3δ
  affinity for 14-3-3 (in words): intermediate affinity
  koff: 0.022 s⁻¹

## CC[C@H](C)[C@H](NC(=O)[C@@H]1CCCN1C(=O)[C@@H](NC(=O)[C@@H]1CCCN1C(=O)CCCCCNC(=O)CCCC[C@@H]1SC[C@@H]2NC(=O)N[C@@H]21)[C@@H](C)O)C(=O)N[C@@H](CCCCN)C(=O)N[C@@H](CCCNC(=N)N)C(=O)NCC(=O)N[C@@H](CCCNC(=N)N)C(=O)N[C@@H](COP(=O)(O)O)C(=O)N[C@@H](CSC/C=C(\C)CC/C=C(\C)CC/C=C(\C)CCC=C(C)C)C(=O)O [RhoG] ({Biotin-Ahx}-PTPIKRGR[pS]C(Geranylgeranyl)-OH)
14-3-3δ
  affinity for 14-3-3 (in words): lower affinity
  koff: 0.035 s⁻¹

## CC(C)=CCSC[C@H](NC(=O)[C@H](COP(=O)(O)O)NC(=O)[C@H](CCCCN)NC(=O)[C@H](C)NC(=O)[C@H](CCCCN)NC(=O)[C@H](CC(=O)O)NC(=O)[C@H](CCCCN)NC(=O)[C@H](CCCNC(=N)N)NC(=O)[C@H](CC(C)C)NC(=O)[C@H](CC(=O)O)NC(=O)CCCCCNC(=O)CCCC[C@@H]1SC[C@@H]2NC(=O)N[C@@H]21)C(=O)O [+P+Ipr] ({Biotin-Ahx}-DLRKDKAK[pS]C(Prenyl)-OH)
14-3-3ζ [2]
  fold lower affinity for 14-3-3 compared to Rnd3 peptides with two, three and four isoprenyl groups: approximately 10 fold
  Kd: 556 nM
  koff: 0.13 s⁻¹
  kon: 240000 M⁻¹ s⁻¹

## CC(C)=CCC/C(C)=C/CC/C(C)=C/CC/C(C)=C/CSC[C@H](NC(=O)[C@@H](NC(=O)[C@H](CCCCN)NC(=O)[C@H](CO)NC(=O)[C@H](CCCCN)NC(=O)[C@H](CCCCN)NC(=O)[C@H](CC(=O)O)NC(=O)[C@H](CC(=O)O)NC(=O)CNC(=O)CNC(=O)CCCCCNC(=O)CCCC[C@@H]1SC[C@@H]2NC(=O)N[C@@H]21)[C@@H](C)OP(=O)(O)O)C(=O)O [PDE6C] ({Biotin-Ahx}-GGDDKKSK[pT]C(Geranylgeranyl)-OH)
14-3-3δ
  koff: 0.018 s⁻¹

## biotinylated Rnd3 C-terminal peptide, phosphorylated on S240 and farnesylated on C241 (+P+F)
hexa-His-tagged 14-3-3ζ [3]
  dH: -2.96 kcal/mol
  stoichiometry N: 0.83

## CC(C)=CCC/C(C)=C/CSC[C@H](NC(=O)[C@H](COP(=O)(O)O)NC(=O)[C@H](CCCCN)NC(=O)[C@H](C)NC(=O)[C@H](CCCCN)NC(=O)[C@H](CC(=O)O)NC(=O)[C@H](CCCCN)NC(=O)[C@H](CCCNC(=N)N)NC(=O)[C@H](CC(C)C)NC(=O)[C@H](CC(=O)O)NC(=O)CCCCCNC(=O)CCCC[C@@H]1SC[C@@H]2NC(=O)N[C@@H]21)C(=O)O [+P+G] ({Biotin-Ahx}-DLRKDKAK[pS]C(X1)-OH)
14-3-3ζ [2]
  Kd: 56.5 nM
  koff: 0.032 s⁻¹
  kon: 570000 M⁻¹ s⁻¹

## DLRKDKAKSC-OH [−P-F]
14-3-3ζ [1]; tested at 15°C and 25°C
  binding to 14-3-3ζ (in words): no binding
14-3-3ζ [2]
  Kd: > 4000 nM

## CC(C)=CCC/C(C)=C/CC/C(C)=C/CC/C(C)=C/CSC[C@H](NC(=O)[C@H](COP(=O)(O)O)NC(=O)[C@H](CO)NC(=O)[C@H](CCCCN)NC(=O)[C@H](CCCCN)NC(=O)[C@H](CCCNC(=N)N)NC(=O)[C@H](C)NC(=O)[C@H](CCCCN)NC(=O)CNC(=O)[C@@H]1CCCN1C(=O)CCCCCNC(=O)CCCC[C@@H]1SC[C@@H]2NC(=O)N[C@@H]21)C(=O)O [Rap1B] ({Biotin-Ahx}-PGKARKKS[pS]C(Geranylgeranyl)-OH)
14-3-3δ
  affinity for 14-3-3 (in words): lower affinity
  koff: 0.055 s⁻¹

B1: Rap1A C-terminal peptide, phosphorylated and geranylgeranylated (N-Bio-Eahx-EKKKPKKKpSC(S-geranylgeranyl)-C) (peptide)
peptide: {Biotin-Ahx}-EKKKPKKK[pS]C(Geranylgeranyl)
notes: also called Rap1A+P+GG; source: synthetic peptide
hexa-His-tagged 14-3-3ζ [4]
  Kd: 23.6 nM
  koff: 0.034 s⁻¹
  kon: 1.4e+06 M⁻¹ s⁻¹

## {Biotin-Ahx}-PGKARKKS[pS]C(Geranylgeranyl) (source: synthetic peptide)
hexa-His-tagged 14-3-3ζ [4]
  Kd: 170 nM
  kon: 320000 M⁻¹ s⁻¹

## {Biotin-Ahx}-PTPIKRGR[pS]C(Geranylgeranyl) (source: synthetic peptide)
hexa-His-tagged 14-3-3ζ [4]
  Kd: 868 nM
  kon: 41000 M⁻¹ s⁻¹

## {Biotin-Ahx}-GGDDKKSK[pT]C(Geranylgeranyl) (source: synthetic peptide)
hexa-His-tagged 14-3-3ζ [4]
  Kd: 44.5 nM
  kon: 410000 M⁻¹ s⁻¹

B2: RPGR C-terminal peptide, phosphorylated and geranylgeranylated (N-Bio-Eahx-TNTERRSKpSC(S-geranylgeranyl)-C) (peptide)
peptide: {Biotin-Ahx}-TNTERRSK[pS]C(Geranylgeranyl)
notes: also called RPRG; source: synthetic peptide
hexa-His-tagged 14-3-3ζ [4]
  Kd: 95 nM
  koff: 0.022 s⁻¹
  kon: 240000 M⁻¹ s⁻¹
